Blank lines part the entries; values can stand above or below the molecule they belong to.
Assay: solvent given as SMILES

Structure (SMILES): Cc1ccc(-c2ccc(/C=C/c3ccccc3)cn2)nc1
fluorescence lifetime (in CC#N): 1.06 ns

Structure (SMILES): O=S(=O)(c1ccc(-c2ccc(-n3c4ccccc4c4ccccc43)cc2)cc1)c1ccc(-c2ccc(-n3c4ccccc4c4ccccc43)cc2)cc1
fluorescence lifetime (in Cc1ccccc1): 2.55 ns

Structure (SMILES): CCC(=O)c1ccc2cc(N(C)C)ccc2c1
fluorescence lifetime (in C1CCCCC1): 1.6 ns
fluorescence lifetime (in C1CCOC1): 3.58 ns
fluorescence lifetime (in CC#N): 3.96 ns
fluorescence lifetime (in CCCCCC): 0.29 ns
fluorescence lifetime (in CCO): 3.65 ns
fluorescence lifetime (in CN(C)C=O): 3.85 ns
fluorescence lifetime (in CO): 3.04 ns
fluorescence lifetime (in CS(C)=O): 3.12 ns
fluorescence lifetime (in Cc1ccccc1): 2.33 ns
fluorescence lifetime (in ClC(Cl)Cl): 3.09 ns
fluorescence lifetime (in ClCCl): 3.44 ns
fluorescence lifetime (in O): 2.1 ns
fluorescence lifetime (in OCC(O)CO): 3.8 ns
fluorescence lifetime (in c1ccccc1): 3.3 ns

Structure (SMILES): CC1(C)c2ccccc2N(c2ccc(S(=O)(=O)c3ccc(N4c5ccccc5C(C)(C)c5ccccc54)cc3)cc2)c2ccccc21
fluorescence lifetime (in C1COCCO1): 21 ns
fluorescence lifetime (in CC(C)=O): 20 ns
fluorescence lifetime (in Cc1ccccc1): 20 ns
fluorescence lifetime (in ClC(Cl)Cl): 21 ns
fluorescence lifetime (in c1cc(-n2c3ccccc3c3ccccc32)cc(-n2c3ccccc3c3ccccc32)c1): 21 ns

Structure (SMILES): Cc1ccc(-c2ccc(/C=C/c3cccn3C)cn2)nc1
fluorescence lifetime (in C1COCCO1): 0.59 ns
fluorescence lifetime (in CC#N): 0.51 ns
fluorescence lifetime (in CCCCCC): 0.86 ns
fluorescence lifetime (in CCO): 0.92 ns
fluorescence lifetime (in CN(C)C=O): 0.65 ns
fluorescence lifetime (in CO): 1 ns
fluorescence lifetime (in CS(C)=O): 0.64 ns
fluorescence lifetime (in Cc1ccccc1): 0.56 ns
fluorescence lifetime (in ClC(Cl)Cl): 0.62 ns
fluorescence lifetime (in c1ccccc1): 0.51 ns

Structure (SMILES): CCCCCCCCOc1ccc2c3cccc4c(OCCCCCCCC)ccc(c5cccc1c52)c43
fluorescence lifetime (in C1CCOC1): 3.88 ns
fluorescence lifetime (in Cc1ccccc1): 3.65 ns
fluorescence lifetime (in ClC(Cl)(Cl)Cl): 3.82 ns
fluorescence lifetime (in ClC(Cl)Cl): 3.77 ns
fluorescence lifetime (in ClCCl): 4.17 ns
fluorescence lifetime (in c1ccncc1): 4.01 ns

Structure (SMILES): O=C1c2ccc(-c3ccc(N(c4ccccc4)c4ccccc4)cc3)cc2C(=O)c2ccc(-c3ccc(N(c4ccccc4)c4ccccc4)cc3)cc21
fluorescence lifetime (in Cc1ccccc1): 9 ns
fluorescence lifetime (in c1ccc2c(c1)c1ccccc1n2-c1ccc(-c2ccc(-n3c4ccccc4c4ccccc43)cc2)cc1): 10.2 ns

Structure (SMILES): COc1c2ccccc2c(OC)c2c1c1cc(Cl)ccc1n2C
fluorescence lifetime (in C1CCCCC1): 21.2 ns
fluorescence lifetime (in CC#N): 26.8 ns
fluorescence lifetime (in CO): 25.9 ns
fluorescence lifetime (in ClCCl): 23.2 ns

Structure (SMILES): O=S(=O)(c1ccc(-c2ccc3c(c2)c2ccccc2n3-c2ccccc2)cc1)c1ccc(-c2ccc3c(c2)c2ccccc2n3-c2ccccc2)cc1
fluorescence lifetime (in Cc1ccccc1): 1.51 ns

Structure (SMILES): COc1cccc(OC)c1C1=C2C(C)=CC(C)=[N+]2[B-](F)(F)n2c(C)cc(C)c21
fluorescence lifetime (in C1CCOC1): 5.77 ns
fluorescence lifetime (in CCCCCC): 6.26 ns

Structure (SMILES): N#Cc1cc2ccc(cc2)c2cccc3cccc(c4ccc(cc4)cc(C#N)c4ccc(cc4)c4cccc5cccc(c6ccc1cc6)c54)c32
fluorescence lifetime (in Cc1ccccc1): 20.6 ns

Structure (SMILES): CN(C)c1ccc2nc3c(cc2c1)c(-c1ccccc1)nn3-c1ccccc1
fluorescence lifetime (in C1CCCCC1): 16.1 ns
fluorescence lifetime (in C1CCOC1): 21 ns
fluorescence lifetime (in CC#N): 24.5 ns
fluorescence lifetime (in CC(C)=O): 23.4 ns
fluorescence lifetime (in CCCCCl): 20.1 ns
fluorescence lifetime (in CCCCOCCCC): 18.4 ns
fluorescence lifetime (in CN(C)C=O): 22.3 ns

Structure (SMILES): COc1ccc2c3c(OC)c4ccccc4c(OC)c3n(C)c2c1
fluorescence lifetime (in C1CCCCC1): 14.3 ns
fluorescence lifetime (in CC#N): 19.1 ns
fluorescence lifetime (in CO): 18.3 ns
fluorescence lifetime (in ClCCl): 12.1 ns

Structure (SMILES): O=C1c2cc(F)ccc2-c2cnccc21
fluorescence lifetime (in CC#N): 5.6 ns
fluorescence lifetime (in CCOC(C)=O): 6.6 ns
fluorescence lifetime (in Cc1ccccc1): 4.5 ns
fluorescence lifetime (in ClCCl): 6.3 ns

Structure (SMILES): c1ccc(-c2cnc3nn4ccccc4c3n2)cc1
fluorescence lifetime (in C1CCOC1): 5.3 ns

Structure (SMILES): CC(=O)O[B-]1(OC(C)=O)OC(/C=C/c2cccc3ccccc23)=CC(/C=C/c2cccc3ccccc23)=[O+]1
fluorescence lifetime (in C1CCOC1): 5.75 ns
fluorescence lifetime (in CC#N): 4.5 ns
fluorescence lifetime (in CC(C)=O): 4.67 ns
fluorescence lifetime (in CS(C)=O): 4.24 ns
fluorescence lifetime (in Cc1ccccc1): 5.13 ns
fluorescence lifetime (in ClC(Cl)Cl): 5.73 ns
fluorescence lifetime (in ClCCl): 5.99 ns

Structure (SMILES): CCOC(=O)CN1C(=O)C2=C(c3ccccc3)N(CC(=O)OCC)C(=O)C2=C1c1ccccc1
fluorescence lifetime (in CC#N): 6.7 ns
fluorescence lifetime (in CS(C)=O): 7.34 ns
fluorescence lifetime (in Cc1ccccc1): 5.93 ns

Structure (SMILES): C(#Cc1ccc(-n2c3ccccc3c3ccccc32)cc1)c1ccccc1
fluorescence lifetime (in CC#N): 4.36 ns
fluorescence lifetime (in CCCCC): 2.6 ns
fluorescence lifetime (in CO): 3.7 ns
fluorescence lifetime (in Cc1ccccc1): 1.45 ns
fluorescence lifetime (in ClC(Cl)Cl): 1.59 ns
fluorescence lifetime (in ClCCl): 2.53 ns

Structure (SMILES): CC1(C)c2ccccc2N(c2ccc(-c3ccc4c(c3)c3cc(-c5ccc(N6c7ccccc7C(C)(C)c7ccccc76)cc5)ccc3c3nc(C#N)c(C#N)nc43)cc2)c2ccccc21
fluorescence lifetime (in O=P(c1ccccc1)(c1ccccc1)c1cccc(-c2cc(-n3c4ccccc4c4ccccc43)cc(-n3c4ccccc4c4ccccc43)c2)n1): 53.6 ns

Structure (SMILES): O=C1/C(=C2\Sc3ccc(S(=O)(=O)Nc4ccccc4)cc3C2=O)Sc2ccc(S(=O)(=O)Nc3ccccc3)cc21
fluorescence lifetime (in C1COCCO1): 6.06 ns
fluorescence lifetime (in CO): 0.13 ns
fluorescence lifetime (in CS(C)=O): 0.12 ns

Structure (SMILES): Cc1c(C)c(B(c2c(C)c(C)c(C#N)c(C)c2C)c2c(C)c(C)c(N3c4ccccc4Oc4ccccc43)c(C)c2C)c(C)c(C)c1C#N
fluorescence lifetime (in c1ccc([Si](c2ccccc2)(c2ccc(-n3c4ccccc4c4ccccc43)cc2)c2ccc(-n3c4ccccc4c4ccccc43)cc2)cc1): 32 ns

Further lines, results first:

fluorescence lifetime (in C1CCCCC1): 2.9 ns
fluorescence lifetime (in CCOC(C)=O): 0.92 ns
Structure (SMILES): CC1=[N+]2C(=C(c3ccc(C(=O)c4ccccc4)cc3)c3ccc(C)n3[B-]2(F)F)C=C1c1cc2n(c1)[B-](F)(F)[N+]1=CC=CC1=C2c1c(C)cc(C)cc1C

fluorescence lifetime (in ClC(Cl)Cl): 4.6 ns
Structure (SMILES): COc1cc2c3cc(OC)c(OC)cc3c3cc4c(C)cc(=O)oc4cc3c2cc1OC

fluorescence lifetime (in ClCCl): 1.77 ns
Structure (SMILES): CCCCCCOc1cc(/C=C/c2cc(OCCCCCC)c(/C=C/c3cc(OCCCCCC)c(C=O)cc3OCCCCCC)cc2OCCCCCC)c(OCCCCCC)cc1C=O

fluorescence lifetime (in CCOC(C)=O): 2.41 ns
Structure (SMILES): C[Si](C)(C)c1cc2c(cc3ccc4cccc5ccc2c3c45)[nH]1

fluorescence lifetime (in ClCCl): 3.16 ns
Structure (SMILES): C1=CC2C=c3c(cc4cccc5cc6ccccc6c3c45)C3=c4ccccc4=CC(=C1)C32 (centres undefined)

fluorescence lifetime (in ClC(Cl)Cl): 3.19 ns
Structure (SMILES): F[B-]1(F)OC(c2cc3c4c(c2)CCCN4CCC3)=Cc2cccc[n+]21

fluorescence lifetime (in CCCCCCC): 108 ns
Structure (SMILES): CC(=O)Nc1cc2ccc3cccc4ccc(c1)c2c34

fluorescence lifetime (in ClCCl): 1.6 ns
Structure (SMILES): CC(C)(C)c1cc(-c2cc3c(cc(-c4cc(C(C)(C)C)cc(C(C)(C)C)c4)n3-c3ccc(C(=C(c4ccccc4)c4ccccc4)c4ccccc4)cc3)n2-c2ccc(C(=C(c3ccccc3)c3ccccc3)c3ccccc3)cc2)cc(C(C)(C)C)c1

fluorescence lifetime (in C1CCCCC1): 0.84 ns
fluorescence lifetime (in CC#N): 1.07 ns
fluorescence lifetime (in CO): 1.43 ns
Structure (SMILES): Cc1cc(C)c(C)c(-c2ccc3cc(C)c(=O)oc3c2)c1C

fluorescence lifetime (in ClCCl): 2.3 ns
Structure (SMILES): Cc1ccc(O)c(-c2nc(C)c3n2CCCC3)c1

fluorescence lifetime (in ClCCl): 2.67 ns
Structure (SMILES): CC(C)(C)c1ccc(-c2c3c(c(-c4ccccc4)c4cc5ccccc5cc24)Cc2c(c(-c4ccccc4)c4cc5ccccc5cc4c2-c2ccc(C(C)(C)C)cc2)C3)cc1

fluorescence lifetime (in ClCCl): 2.56 ns
Structure (SMILES): CCCCOc1ccc(-c2oc3c(-c4ccc(OCCCC)cc4)c4n(c3c2-c2ccc(OCCCC)cc2)[B-](F)(F)[N+]2=Cc3c(-c5ccc(OCCCC)cc5)c5oc(-c6ccc(OCCCC)cc6)c(-c6ccc(OCCCC)cc6)c5n3[B-](F)(F)[N+]2=C4)cc1

fluorescence lifetime (in CO): 21.6 ns
Structure (SMILES): CCOC(=O)CCCCCn1c2ccccc2c(=O)c2cc3c(cc21)c(=O)c1ccccc1n3CCCCCC(=O)OCC

fluorescence lifetime (in CC#N): 10.3 ns
Structure (SMILES): [NH3+]C1(c2ccc3cc(O)ccc3c2)C2CC3CC(C2)CC1C3 (centres undefined)

fluorescence lifetime (in C1CCCCC1): 1.8 ns
fluorescence lifetime (in CC#N): 15.7 ns
fluorescence lifetime (in CCO): 0.8 ns
Structure (SMILES): COc1ccc2c(c1)-c1cc(OC)ccc1C2=O

fluorescence lifetime (in C1COCCO1): 12 ns
fluorescence lifetime (in CS(C)=O): 0.17 ns
Structure (SMILES): O=C1/C(=C2\Sc3ccc(S(=O)(=O)Cl)cc3C2=O)Sc2ccc(S(=O)(=O)Cl)cc21

fluorescence lifetime (in ClC(Cl)Cl): 17.2 ns
Structure (SMILES): CC(C)(C)NC(=O)c1cc2ccc3cccc4ccc(c1C(=O)NC(C)(C)C)c2c34

fluorescence lifetime (in ClCCl): 6.42 ns
Structure (SMILES): Cc1cc(C)n2c1C=C1c3ccccc3C(c3c[nH]c4ccccc34)=[N+]1[B-]2(F)F

fluorescence lifetime (in ClCCl): 3.6 ns
Structure (SMILES): CCOC(=O)/N=c1/oc2cc(N(CC)CC)ccc2cc1C#N
